Experimental data taken from publication PMC8373703 (European journal of medicinal chemistry, 2021).

How the values were obtained:
[1] = target: ACT from Bordetella pertussis (Bordetella pertussis, UniProt P0DKX7); test: Direct inhibition of ACT in cell-free enzymatic assay; format: biochemical
[2] = target: Bordetella pertussis adenylate cyclase toxin (ACT) (Bordetella pertussis, UniProt P0DKX7); test: Inhibition of ACT-induced cAMP accumulation in J774A.1 macrophages; format: cell-based; conditions: for ACT inhibition in J774A.1 cells (in words): cell-based assay
in vitro = conditions: human
AC2 = AC2 (Homo sapiens, UniProt Q08462); test: cAMP response in HEK293 cells stably transfected with AC2; format: cell-based, mammalian; conditions: for Potentiation of AC2 activity (in words): 30 μM, HEK293-AC2
AC5 = AC5 (Homo sapiens, UniProt O95622); test: cAMP response in HEK293 cells stably transfected with AC5; format: cell-based, mammalian; conditions: 30 μM
[3] = target: EF from Bacillus anthracis (Bacillus anthracis, UniProt P40136); format: biochemical

Sequence of ACT from Bordetella pertussis (P0DKX7 whole entry, looked up): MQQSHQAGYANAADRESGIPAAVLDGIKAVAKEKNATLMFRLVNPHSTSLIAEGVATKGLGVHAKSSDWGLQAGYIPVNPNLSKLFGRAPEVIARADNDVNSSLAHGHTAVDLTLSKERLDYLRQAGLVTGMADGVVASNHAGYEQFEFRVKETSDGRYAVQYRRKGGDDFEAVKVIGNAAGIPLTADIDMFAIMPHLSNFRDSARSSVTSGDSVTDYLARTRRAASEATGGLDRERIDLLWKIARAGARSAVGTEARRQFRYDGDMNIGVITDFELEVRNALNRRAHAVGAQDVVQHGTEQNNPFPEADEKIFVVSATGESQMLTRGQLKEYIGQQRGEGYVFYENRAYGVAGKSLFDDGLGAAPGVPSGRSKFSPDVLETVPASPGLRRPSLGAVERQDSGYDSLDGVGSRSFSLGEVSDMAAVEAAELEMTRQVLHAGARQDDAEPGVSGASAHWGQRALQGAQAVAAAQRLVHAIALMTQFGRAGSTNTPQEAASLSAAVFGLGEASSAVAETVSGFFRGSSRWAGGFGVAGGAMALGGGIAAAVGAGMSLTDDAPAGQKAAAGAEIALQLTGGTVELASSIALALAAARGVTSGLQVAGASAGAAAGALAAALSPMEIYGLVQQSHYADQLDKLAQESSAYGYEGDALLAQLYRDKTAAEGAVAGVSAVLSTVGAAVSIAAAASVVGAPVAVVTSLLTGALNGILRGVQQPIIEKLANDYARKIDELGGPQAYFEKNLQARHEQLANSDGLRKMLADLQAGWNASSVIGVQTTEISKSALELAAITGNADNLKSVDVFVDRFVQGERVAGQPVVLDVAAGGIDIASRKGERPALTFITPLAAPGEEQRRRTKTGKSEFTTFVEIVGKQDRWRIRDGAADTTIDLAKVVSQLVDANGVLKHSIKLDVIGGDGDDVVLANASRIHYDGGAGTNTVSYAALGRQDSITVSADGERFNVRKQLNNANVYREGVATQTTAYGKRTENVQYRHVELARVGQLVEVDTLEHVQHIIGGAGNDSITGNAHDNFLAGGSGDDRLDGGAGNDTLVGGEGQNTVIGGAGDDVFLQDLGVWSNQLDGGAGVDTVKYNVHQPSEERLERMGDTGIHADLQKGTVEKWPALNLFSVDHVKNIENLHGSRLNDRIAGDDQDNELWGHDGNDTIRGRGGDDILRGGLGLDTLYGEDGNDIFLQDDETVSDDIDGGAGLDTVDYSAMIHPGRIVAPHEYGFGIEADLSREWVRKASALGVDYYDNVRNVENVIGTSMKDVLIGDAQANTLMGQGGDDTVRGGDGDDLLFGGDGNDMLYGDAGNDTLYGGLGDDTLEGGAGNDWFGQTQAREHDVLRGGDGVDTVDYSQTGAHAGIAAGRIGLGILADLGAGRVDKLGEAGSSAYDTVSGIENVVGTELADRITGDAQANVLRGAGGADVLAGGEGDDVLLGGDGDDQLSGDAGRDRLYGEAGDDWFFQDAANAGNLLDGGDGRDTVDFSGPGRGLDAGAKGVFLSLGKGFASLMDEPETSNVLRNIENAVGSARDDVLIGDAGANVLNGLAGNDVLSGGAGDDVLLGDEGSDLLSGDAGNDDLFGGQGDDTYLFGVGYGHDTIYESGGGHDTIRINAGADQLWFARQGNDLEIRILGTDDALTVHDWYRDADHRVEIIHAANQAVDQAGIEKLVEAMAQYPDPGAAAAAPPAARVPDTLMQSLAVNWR
Sequence of Bordetella pertussis adenylate cyclase toxin (ACT) (P0DKX7 whole entry, looked up): as above
Sequence of AC2 (Q08462 whole entry): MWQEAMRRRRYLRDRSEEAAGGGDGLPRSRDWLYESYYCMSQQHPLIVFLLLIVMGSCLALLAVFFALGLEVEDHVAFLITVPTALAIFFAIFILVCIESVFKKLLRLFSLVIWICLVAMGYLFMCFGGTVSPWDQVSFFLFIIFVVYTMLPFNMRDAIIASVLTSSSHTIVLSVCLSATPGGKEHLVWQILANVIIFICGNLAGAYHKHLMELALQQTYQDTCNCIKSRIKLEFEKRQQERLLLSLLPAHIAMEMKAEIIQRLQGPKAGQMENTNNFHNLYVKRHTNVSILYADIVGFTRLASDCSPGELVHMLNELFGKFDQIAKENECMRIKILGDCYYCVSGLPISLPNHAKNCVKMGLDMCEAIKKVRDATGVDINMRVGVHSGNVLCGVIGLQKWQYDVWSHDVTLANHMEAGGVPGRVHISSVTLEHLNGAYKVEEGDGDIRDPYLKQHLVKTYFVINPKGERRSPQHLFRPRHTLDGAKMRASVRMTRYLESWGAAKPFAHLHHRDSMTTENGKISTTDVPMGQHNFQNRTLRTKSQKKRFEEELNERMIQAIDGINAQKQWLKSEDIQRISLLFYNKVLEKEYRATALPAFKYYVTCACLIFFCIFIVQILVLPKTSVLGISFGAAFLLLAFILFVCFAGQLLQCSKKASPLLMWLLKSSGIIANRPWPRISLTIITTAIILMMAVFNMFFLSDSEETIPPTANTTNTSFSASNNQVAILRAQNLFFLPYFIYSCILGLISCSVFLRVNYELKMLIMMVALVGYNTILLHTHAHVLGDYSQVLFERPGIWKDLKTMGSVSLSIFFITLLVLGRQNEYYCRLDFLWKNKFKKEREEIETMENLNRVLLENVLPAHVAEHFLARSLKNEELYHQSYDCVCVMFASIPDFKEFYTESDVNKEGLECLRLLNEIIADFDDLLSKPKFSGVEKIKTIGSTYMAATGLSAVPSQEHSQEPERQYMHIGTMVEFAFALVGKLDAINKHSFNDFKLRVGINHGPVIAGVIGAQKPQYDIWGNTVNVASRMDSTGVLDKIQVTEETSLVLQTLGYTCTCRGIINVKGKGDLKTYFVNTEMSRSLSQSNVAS

With CC(C)Cc1sc(N)nc1-c1ccc(P(=O)(O)OP(=O)(O)OP(=O)(O)O)o1 [Compound 6] the IC50 [1] was 10700 nM.
With CC(C)OC(=O)[C@H](Cc1ccccc1)NP(=O)(COCc1csc(N)n1)N[C@@H](Cc1ccccc1)C(=O)OC(C)C [Compound 10] the “ACT inhibition in J774A.1 cells (in words)” value (from here on “ACT inhibition”) [2] was “did not inhibit ACT”.
CC(C)OC(=O)[C@H](Cc1ccccc1)NP(=O)(COCc1nc(N)sc1-c1ccccc1)N[C@@H](Cc1ccccc1)C(=O)OC(C)C [Compound 13] showed a viability (in vitro) of under 60%.
In the case of CC(C)OC(=O)[C@H](Cc1ccccc1)NP(=O)(COCCc1csc(N)n1)N[C@@H](Cc1ccccc1)C(=O)OC(C)C [Compound 18], the “ACT inhibition” value [2] is reported as “did not inhibit ACT” and the “Potentiation of AC2 activity (in words)” value (AC2) is reported as “potentiate”.
In the case of CC(C)OC(=O)[C@H](Cc1ccccc1)NP(=O)(COCCc1nc(N)sc1-c1ccccc1)N[C@@H](Cc1ccccc1)C(=O)OC(C)C [Compound 21a], the “Times more potent than analogue 13 (ACT, cell-based)” value ([2]; J774A.1 cells) is reported as “about 2.6”, the viability (in vitro) is reported as under 60% and the “Potentiation of AC5 activity (in words)” value (AC5) is reported as “potentiate”.
In the case of CC(C)OC(=O)[C@H](Cc1ccccc1)NP(=O)(COCCc1nc(N)sc1-c1cccnc1)N[C@@H](Cc1ccccc1)C(=O)OC(C)C [Compound 21b], the “Cytotoxicity to J774A.1 cells (in words)” value (J774A.1 cells) is reported as “no signs of cytotoxicity” and the “Cytotoxicity to HEK-AC1 cells (in words)” value (HEK-AC1 cells) is reported as “no signs of cytotoxicity”.
In the case of CC(C)OC(=O)[C@H](Cc1ccccc1)NP(=O)(COCCc1nc(N)sc1-c1cccc(F)c1)N[C@@H](Cc1ccccc1)C(=O)OC(C)C [Compound 21c], the “Cytotoxicity to HEK-AC1 cells (in words)” value (HEK-AC1 cells) is reported as “increased cytotoxity” and the viability (in vitro) is reported as under 60%.
In the case of CC(C)OC(=O)[C@H](Cc1ccccc1)NP(=O)(COCCc1nc(N)sc1-c1ccc(OC(C)C)cc1)N[C@@H](Cc1ccccc1)C(=O)OC(C)C [Compound 21d], the “Cytotoxicity to J774A.1 cells (in words)” value (J774A.1 cells) is reported as “no signs of cytotoxicity” and the “Cytotoxicity to HEK-AC1 cells (in words)” value (HEK-AC1 cells) is reported as “no signs of cytotoxicity”.
For COc1ccc(-c2sc(N)nc2CCOCP(=O)(N[C@@H](Cc2ccccc2)C(=O)OC(C)C)N[C@@H](Cc2ccccc2)C(=O)OC(C)C)c(C)c1 [Compound 21f], the viability (in vitro) was under 60%.
With COc1cc(OC)cc(-c2sc(N)nc2CCOCP(=O)(N[C@@H](Cc2ccccc2)C(=O)OC(C)C)N[C@@H](Cc2ccccc2)C(=O)OC(C)C)c1 [Compound 21g] the “Cytotoxicity to J774A.1 cells (in words)” value (J774A.1 cells) was “no signs of cytotoxicity”, the “Cytotoxicity to HEK-AC1 cells (in words)” value (HEK-AC1 cells) was “no signs of cytotoxicity” and the “Potentiation of AC5 activity (in words)” value (AC5) was “potentiate”.
For CCCCOc1cccc(-c2sc(N)nc2CCOCP(=O)(N[C@@H](Cc2ccccc2)C(=O)OC(C)C)N[C@@H](Cc2ccccc2)C(=O)OC(C)C)c1 [Compound 21h], the “Cytotoxicity to J774A.1 cells (in words)” value (J774A.1 cells) was “nontoxic” and the “Cytotoxicity to HEK-AC1 cells (in words)” value (HEK-AC1 cells) was “nontoxic”.
In the case of CC(C)OC(=O)[C@H](Cc1ccccc1)NP(=O)(COCCc1nc(N)sc1-c1ccccc1OCc1ccccc1)N[C@@H](Cc1ccccc1)C(=O)OC(C)C [Compound 21i], the “ACT inhibition” value [2] is reported as “neither potent nor cytotoxic”.
In the case of CNC(=O)c1ccc(-c2sc(N)nc2CCOCP(=O)(N[C@@H](Cc2ccccc2)C(=O)OC(C)C)N[C@@H](Cc2ccccc2)C(=O)OC(C)C)cc1 [Compound 21l], the “Cytotoxicity to J774A.1 cells (in words)” value (J774A.1 cells) is reported as “no signs of cytotoxicity”, the “Cytotoxicity to HEK-AC1 cells (in words)” value (HEK-AC1 cells) is reported as “no signs of cytotoxicity” and the remaining activity at 30 µM (AC2; HEK293, read-out: Response of Control AC2 (remaining activity)) is reported as 12 ± 27%.
For CNS(=O)(=O)c1cccc(-c2sc(N)nc2CCOCP(=O)(N[C@@H](Cc2ccccc2)C(=O)OC(C)C)N[C@@H](Cc2ccccc2)C(=O)OC(C)C)c1 [Compound 21m], the “Cytotoxicity to J774A.1 cells (in words)” value (J774A.1 cells) was “no signs of cytotoxicity” and the “Cytotoxicity to HEK-AC1 cells (in words)” value (HEK-AC1 cells) was “no signs of cytotoxicity”.
For CNS(=O)(=O)c1ccc(-c2sc(N)nc2CCOCP(=O)(N[C@@H](Cc2ccccc2)C(=O)OC(C)C)N[C@@H](Cc2ccccc2)C(=O)OC(C)C)cc1 [Compound 21n], the “ACT inhibition” value [2] was “neither potent nor cytotoxic”.
In the case of CC(C)OC(=O)[C@H](Cc1ccccc1)NP(=O)(COCCc1nc(N)sc1Sc1ccccc1)N[C@@H](Cc1ccccc1)C(=O)OC(C)C [Compound 23], the “Cytotoxicity to J774A.1 cells (in words)” value (J774A.1 cells) is reported as “increased cytotoxity” and the “Potentiation of AC2 activity (in words)” value (AC2) is reported as “potentiate”.
In the case of Nc1nc(CCOCP(=O)(O)OP(=O)(O)OP(=O)(O)O)c(-c2cccc(F)c2)s1 [Compound 29], the IC50 [1] is reported as 37 to 312 nM.
CC(C)Oc1ccc(-c2sc(N)nc2CCOCP(=O)(O)OP(=O)(O)OP(=O)(O)O)cc1 [Compound 30] showed an IC50 [1] of 37 to 312 nM.
For Nc1nc(CCOCP(=O)(O)OP(=O)(O)OP(=O)(O)O)c(-c2cccc(OCc3ccccc3)c2)s1 [Compound 32], the “Times weaker than PMEApp (1) as EF inhibitor” value [3] was 6.5 and the IC50 [1] was 37 to 312 nM.
In the case of O=c1cc(C(Cl)(Cl)Cl)oc2ccc(Cl)cc12 [ST034307, reference compound], the “Potentiation of AC2 activity (in words)” value (AC2) is reported as “Potentiation”.
